Experimental data: patent publication US20220370463A1, “STABILIZED C-FMS INTRACELLULAR FRAGMENTS (FICD) PROMOTE OSTEOCLAST DIFFERENTIATION AND ARTHRITIC BONE EROSION” (New York Society for the Relief of the Ruptured and …, priority 2019, published 2022)

Tests used:
osteoclastogenesis = details: inhibiting proteosomal degradation; cited from earlier work
NFATc1 [1] = assay: RANKL-induced NFATc1 expression in human OCPs (immunoblot, qPCR); type: cell-based
Procedure: (a and b) BMDMs from WT and FICDtg^M mice was stimulated with RANKL (50 ng/ml) at the indicated time. (a) RT-qPCR of Nfatc1 mRNA normalized relative to Hprt mRNA. (b) Immunoblot with anti NFATc1, HA, or α-tubulin antibodies. (c and d) BMDMs from Csf1r^f/+ Mx1-Cre mice were transduced by lentiviruses encoding FMS^wt, or FMS^mut and then cultured with M-CSF and RANKL. (c) Immunoblot of whole lysate with anti-NFATc1 antibody. α-tubulin was used as a control. […] The intensity of NFATc1 in FMS^mut was set as 100%. (d) Expression mRNA level of NFATc1. (e) Immunoblot of whole cell lysates with phospho-eIF4E antibodies. HA-tagged FICD was detected by HA-antibody. α-tubulin was used as a control. […] (f and g) Human CD14+ cells were treated with CGP57380 at the indicated doses for one hour and cultured with RANKL for one day. […] (g) Nfatc1 mRNA expression was measured by qPCR relative to HPRT. A DMSO-treated RANKL condition was set as 100%. […]
(§1) Whole cell extracts were prepared by lysis in buffer containing 1× Lamin sample buffer (Bio-rad) and 2-Mercaptoethanol (Sigma) or RIPA buffer (Sigma). […] The protein concentration of nuclear extracts was quantitated using the Bradford assay (Bio-Rad; 5000001). For immunoblot, proteins were separated on 7.5 or 10% SDS-PAGE gels, transferred to polyvinylidene difluoride membranes (PVDF, Millipore; ISEQ00010), and detected by antibodies as listed in the figure legends.

NFATc1 [2] = assay: RANKL-induced NFATc1 expression in mouse OCPs (immunoblot, qPCR); type: cell-based
Procedure: (A and B) BMDMs from WT and FICDtg^M mice were cultured with RANKL for 24 hours. Immunoblot of whole cell lysates with phopho-p70S6K and phopho-4E-BP1 antibodies. HA-tagged FICDs were detected by HA-antibody. α-tubulin or P38 was used as a control. (C) BMDMs from female wild type LysM cre mice (WT) or RAPTORf/f-LysM cre mice (Raptor cKO) were cultured with M-CSF for 4 days and were stimulated with RANKL for the indicated days. Immunoblot of whole cell lysates with anti-Raptor, NFATc1, or α-tubulin antibodies. (D-F) BMDMs from WT mice were treated with CPG57380 at the indicated doses and then cultured with RANKL for one day. (D) Immunoblot of whole lysate with anti-NFATc1 antibody. α-tubulin was used as a control. […] The intensity of NFATc1 bands in RANKL treatment conditions (control) was set as 100%. (n=4) (E) Expression mRNA level of NFATc1. […]
as §1

BMDM cells = assay: Mouse osteoclastogenesis assay in BMDMs (TRAP-positive multinuclear cells); type: cell-based
Procedure: (a and b) BMDMs from WT and FICDtg^M mice was stimulated with RANKL (50 ng/ml) at the indicated time. (a) RT-qPCR of Nfatc1 mRNA normalized relative to Hprt mRNA. (b) Immunoblot with anti NFATc1, HA, or α-tubulin antibodies. (c and d) BMDMs from Csf1r^f/+ Mx1-Cre mice were transduced by lentiviruses encoding FMS^wt, or FMS^mut and then cultured with M-CSF and RANKL. (c) Immunoblot of whole lysate with anti-NFATc1 antibody. α-tubulin was used as a control. […] The intensity of NFATc1 in FMS^mut was set as 100%. (d) Expression mRNA level of NFATc1. (e) Immunoblot of whole cell lysates with phospho-eIF4E antibodies. HA-tagged FICD was detected by HA-antibody. α-tubulin was used as a control. […] (f and g) Human CD14+ cells were treated with CGP57380 at the indicated doses for one hour and cultured with RANKL for one day. […] (g) Nfatc1 mRNA expression was measured by qPCR relative to HPRT. A DMSO-treated RANKL condition was set as 100%. (h) Osteoclastogenesis assay. […]
(A and B) BMDMs from WT and FICDtg^M mice were cultured with RANKL for 24 hours. […] HA-tagged FICDs were detected by HA-antibody. α-tubulin or P38 was used as a control. […]
For human osteoclastogenesis assays, cells were added to 96 well plates in triplicate at a seeding density of 5×10^4 cells per well. […] Multinucleated (greater than 3 nuclei), TRAP-positive osteoclasts were counted in triplicate wells. […]

[3] = system: BMDMs from WT and FICDtg^M mice; assay: Cell viability assay in BMDMs; type: cell-based, mouse; details: CGP57380 at the indicated doses for one day
Procedure: (a and b) BMDMs from WT and FICDtg^M mice was stimulated with RANKL (50 ng/ml) at the indicated time. (a) RT-qPCR of Nfatc1 mRNA normalized relative to Hprt mRNA. (b) Immunoblot with anti NFATc1, HA, or α-tubulin antibodies. (c and d) BMDMs from Csf1r^f/+ Mx1-Cre mice were transduced by lentiviruses encoding FMS^wt, or FMS^mut and then cultured with M-CSF and RANKL. (c) Immunoblot of whole lysate with anti-NFATc1 antibody. α-tubulin was used as a control. […] The intensity of NFATc1 in FMS^mut was set as 100%. (d) Expression mRNA level of NFATc1. (e) Immunoblot of whole cell lysates with phospho-eIF4E antibodies. HA-tagged FICD was detected by HA-antibody. α-tubulin was used as a control. […] (f and g) Human CD14+ cells were treated with CGP57380 at the indicated doses for one hour and cultured with RANKL for one day. […] (g) Nfatc1 mRNA expression was measured by qPCR relative to HPRT. A DMSO-treated RANKL condition was set as 100%. (h) Osteoclastogenesis assay. BMDMs from WT and FICDtg^M mice were treated with CPG57380 at the indicated doses and then cultured with RANKL for three days. […] Scale bar: 100 μm. (i) Cell viability assay. BMDMs WT and FICDtg^M mice was stimulated with CPG57380 at the indicated doses for one day. (j-n) K/BxN serum transfer induced arthritis model. 9-week old male C57BL/6J mice were received K/BxN serum on day 0 and day 2. […]

[4] = CGP57380, RANKL for one day, qPCR

Compound	osteoclastogenesis (osteoclastogenesis)	Nfatc1 mRNA expression (NFATc1 [1]; [4])	RANKL-induced NFATc1 protein expression (NFATc1 [1]; CGP57380 one hour, then RANKL for one day)	Nfatc1 mRNA expression (NFATc1 [2]; [4])	RANKL-induced NFATc1 protein expression (NFATc1 [2]; CGP57380, then RANKL for one day)	enhanced osteoclastogenesis in FICDtg^M cells (BMDM cells; BMDMs from FICDtg^M mice, RANKL for three days)	osteoclast differentiation (BMDM cells; BMDMs from WT mice, RANKL for 3 days)	cell viability [3]
CC(C)C[C@H](NC(=O)[C@H](Cc1ccccc1)NC(=O)c1cnccn1)B(O)O [bortezomib]	suppresses osteoclastogenesis	–	–	–	–	–	–	–
Nc1ncnc2n[nH]c(Nc3ccc(F)cc3)c12 [CGP57380]	–	marginally changed	suppressed RANKL-induced NFATc1 protein expression in a dose-dependent manner	marginally changed	suppressed RANKL-induced NFATc1 protein expression in a dose-dependent manner	inhibited the enhanced osteoclastogenesis in FICDtg^M cells to become comparable to osteoclasts in WT cells	suppressed osteoclast differentiation in a dose-dependent manner	minimal effect
